# Measurements taken from patent US20250140406A1, “CLASSIFYING TUMORS AND PREDICTING RESPONSIVENESS” (Oncocyte Corporation, priority 2022, published 2025).
# Key:
# [1] = tested on: cancer cell lines, DetermaIO classes; test: Association of PRISM compound sensitivity with DetermaIO (DTIO) cell line classes; assay type: cell-based
# [2] = tested on: cancer cell lines classified IM, MSL, M; test: PRISM screen compound sensitivity correlated with IM, MSL and M subtype of cell lines (101 gene signature); assay type: cell-based
# [3] = correlation of PRISM compound sensitivity with DTIO, test cell set
# [4] = correlation of PRISM compound sensitivity with DTIO, training cell set
# [5] = correlation of compound sensitivity with DTIO, test set
# [6] = correlation of compound sensitivity with DTIO, training set
# [7] = correlation of compound sensitivity with DetermaIO (DTIO), test set
# [8] = correlation of compound sensitivity with DetermaIO (DTIO), training set
# [9] = correlation of PRISM compound sensitivity with IM subtype correlation; test cell set (188 cell lines)
# [10] = correlation of PRISM compound sensitivity with M subtype correlation; test cell set (188 cell lines)
# [11] = correlation of PRISM compound sensitivity with MSL subtype correlation; test cell set (188 cell lines)
# [12] = correlation of PRISM compound sensitivity with IM subtype correlation; test cell set
# [13] = correlation of PRISM compound sensitivity with M subtype correlation; test cell set
# [14] = correlation of PRISM compound sensitivity with MSL subtype correlation; test cell set
# [15] = correlation of PRISM compound sensitivity with DTIO (DetermaIO), test cell set (188 cell lines)
# [16] = correlation of PRISM compound sensitivity with DTIO (DetermaIO), training cell set (371 cell lines)
# [17] = subtype (IM, MSL or M) assigned to the compound by negative correlation of PRISM sensitivity with subtype; training cell set (371 cell lines), 101 gene signature
# [18] = subtype (IM, MSL or M) with which PRISM compound sensitivity is negatively correlated; training cell set, 101 gene signature
SMILES,"DTIO Corr test [1, 3]","DTIO Corr train [1, 4]","IM Corr test [2, 9]","M Corr test [2, 10]","MSL Corr test [2, 11]","IM Corr test [2, 12]","M Corr test [2, 13]","MSL Corr test [2, 14]","DTIO Corr test [1, 15]","DTIO Corr train [1, 16]",further results
O=C(NCc1cccc(O)c1)Nc1nc(-c2ccncc2)cs1 [RKI-1447],0.08122,0.04633,0.09379,−0.1921,−0.2082,,,,,,"DTIO Corr test [1, 5]: 0.08122; DTIO Corr train [1, 6]: 0.04633; DTIO Corr test [1, 7]: 0.08122; DTIO Corr train [1, 8]: 0.04633; TNBCType train ([2]; subtype (IM, MSL or M) with which compound sensitivity is negatively correlated; training cell set (371 cell lines), 101 gene signature): MSL; TNBCType test ([2]; subtype (IM, MSL, M) with which compound sensitivity correlates, test set): MSL; TNBCType train ([2]; subtype (IM, MSL, M) with which compound sensitivity correlates, training set): MSL; TNBCType test ([2]; subtype (IM, MSL, M) with which compound sensitivity correlates; test set): MSL; TNBCType train ([2]; subtype (IM, MSL, M) with which compound sensitivity correlates; training set): MSL"
O=[N+]([O-])c1cc(Cl)ccc1S(=O)(=O)N1CCN(Cc2ccccc2)CC1 [RN-1747],−0.09773,−0.1839,,,,−0.1441,0.1428,0.1269,,,
CC(C)c1cc(-c2ccc(F)c3ccccc23)nc(N)n1 [RS-127445],,,0.05394,−0.1296,−0.05973,,,,0.0427,0.05431,"TNBCType train [2, 17]: MSL"
O=c1[nH]ccc2cc(OC3CCNCC3)ccc12 [SAR407899],,,0.003595,−0.1052,−0.2277,,,,−0.00558,0.07673,"TNBCType train [2, 17]: MSL"
COC(=O)[C@H](NC(=O)c1cc(-c2ccccc2)nc2ccccc12)c1ccccc1 [SB-218795],,,−0.01019,0.01779,−0.1047,,,,−0.06114,−0.1377,
Cc1cccc(-c2[nH]c(C(C)(C)C)nc2-c2ccc3c(c2)OCO3)n1 [SB-505124],0.1683,0.2562,,,,0.2475,−0.1987,−0.01627,,,"DTIO Corr test [1, 7]: 0.1683; DTIO Corr train [1, 8]: 0.2562"
COc1ccc(S(=O)(=O)N2CCCN(S(=O)(=O)c3ccc(OC)c(OC)c3)CC2)cc1OC [SB-756050],−0.06711,−0.07957,,,,−0.03347,−0.03952,0.01577,,,
C=C(C)CN1CC[C@]23c4c5ccc(O)c4O[C@H]2c2[nH]c4ccccc4c2C[C@@]3(O)C1C5.Cl.O [SDM25N],−0.165,−0.12,−0.1682,0.08807,−0.06407,,,,,,
COc1cc2ncnc(Sc3nnc(C)s3)c2cc1OC [SKLB1002],0.03788,0.02384,,,,0.0147,−0.00342,−0.05424,,,"TNBCType train [2, 18]: MSL"
Cl.NC1CCN(c2cccc(Cl)n2)CC1 [SR-57227A],0.01635,−0.1048,−0.02879,−0.08168,−0.00449,,,,,,
Cc1nc(-c2cccnc2)sc1C(=O)Nc1ccccc1-c1cn2c(CN3CCOCC3)csc2n1 [SRT2104],−0.05596,−0.07665,,,,−0.05657,0.06965,−0.08685,,,"TNBCType train [2, 18]: MSL"
C[C@H](C[C@H](N)C(=O)O)C(=O)O [SYM-2081],,,−0.08842,0.01603,0.05746,,,,−0.1311,−0.0674,
CC(C)(O)CC(=O)NCCn1ccc2ncnc(Nc3ccc(Oc4cccc(C(F)(F)F)c4)c(Cl)c3)c21 [TAK-285],,,−0.1598,0.2221,0.1785,,,,−0.06872,−0.07158,"DTIO Corr test [1, 5]: −0.06872; DTIO Corr train [1, 6]: −0.07158"
